The test system of data set [1] is phospho-cdc2 (Tyr15) in HT-29 cells. In words: Effect on phosphorylation of cdc2 at Tyr15 in HT-29 cells (PathScan ELISA). The data set is classed as cell-based. The note with it: Homo sapiens, HT-29, 8 h; HT29 cells, eight hours incubation; read-out: HT29 pCDC2 activity. The procedure: Method 2: Determining the effect of compounds on the phosphorylation of cdc2 at Tyr15
The colorectal cancer cell lines HT-29 and HCT-116 were purchased from the ATCC and routinely maintained in McCoy's Medium (Invitrogen) supplemented with 10% Foetal Calf Serum.
The cells were trypsinised from their growing vessel and counted, 100 μL of cell suspension containing 6000 cells was pipetted into black 96 well Co-star plates and incubated overnight to allow adherence to the surface at a temperature of 37° C. and an atmosphere of 5% CO2. Test compounds were formulated in DMSO and diluted in foetal calf serum supplemented medium. Incubating medium was removed by aspiration and diluted drug supplemented medium added to each well.
The plate was returned to the incubator for an additional eight hours at 37° C. and an atmosphere of 5% CO2. Post incubation, the drug supplemented medium was aspirated from each well and the cells were washed once in ice-cold phosphate buffered saline (PBS). 100 μL of cell lysis buffer (Cell Signalling Technologies #9803) containing 20 mM Tris, 150 mM NaCl, 1 mM EDTA, 1 mM EGTA, 1% Triton-X100, 2.5 mM sodium pyrophosphate, 1 mM glycerophosphate, 1 mM Na3VO4 and 1 μg/mL leupeptin was added to each well of the 96 well plate and incubated at 4° C. for 30 min. The samples on the plate were snap frozen at −80° C. until required.
Immediately before the continuation of the assay, the sample plate was thawed and centrifuged at 4° C. for 10 min and the supernatant transferred to secondary tubes or 96 well plate.
Cell supernatant was mixed in a ratio of 1:1 with sample dilutent buffer and vortexed for one minute. 100 μL of diluted sample was pipetted into pre-coated plates containing a rabbit polyclonal antibody for phospho-cdc2 (Tyr15) (Cell Signalling Technologies PathScan kit #7176). The plate was sealed and incubated overnight at 4° C.
The plate seal was removed and the well contents aspirated, followed by 3×5 min washes with 200 μL of diluted wash buffer. Between each wash the plate was tapped firmly onto blotting paper to ensure the removal of all kit solution. 100 μL of kit detection antibody was added to each well and the plate re-sealed and incubated at 37° C. for 1 h. Post incubation the plate was washed and processed in a similar manner to that previously described.
100 μL of horseradish peroxidise-linked secondary antibody was added to each test well, the plate sealed and incubated for thirty minutes at 37° C. Post incubation, the plate was washed as previously stated, followed by the addition of 100 μL of 3,3′,5,5′ tetramethylbenzidine (TMB reagent). The plate was sealed and incubated at RT for 30 min.
100 μL of stop solution was added to each well and the underside of the plate wiped with a lint-free tissue, prior to spectrophotometric determination. Absorbance from each well was read at 450 nm within 30 min of the addition of the stop solution.
The percentage of phospho-cdc2 was calculated compared to DMSO control and plotted versus the concentration of inhibitor using GraphPad Prism. Data was fitted using non-linear regression analysis and IC50 values generated.
In general terms: In an ELISA, binding on a coated surface is turned into a signal by an enzyme label.

Data set [2] can be described thus: CLint estimates using human liver microsomes. The data set is classed as in vitro ADME. To be noted: pH 7.4, read-out: HLM activity (HLM CLint). As to the method:
Method for the Determination of CLint Estimates Using Human Liver Microsomes
Test compounds (final concentration=1 μM; final DMSO concentration=0.1%) were incubated in 0.1M phosphate buffer pH 7.4 with human liver microsomes (0.5 mg of protein/mL) at 37° C. Reactions were started by addition of NADPH in 0.1M phosphate buffer pH 7.4 (final concentration 1 mM). 40 μL aliquots were removed at 2, 5, 10, 15, 20, 30, 40 and 50 min. Reactions were quenched in 80 μL of ice-cold methanol. Samples were subsequently frozen overnight then centrifuged at 3500 rpm for 20 min at 4° C. The supernatants were removed and transferred into analytical plates and analysed by LC/MS/MS.
All samples were analysed on a Waters Acquity I-Class coupled to a Waters Xevo TQD mass spectrometer. A Waters BEH C18 2.1×50 mm 1.7 μm column was used and mobile phases were water and methanol containing 0.1% formic acid as modifier. Analysis was by multiple reaction monitoring and conditions were optimised for each test compound.
From a plot of ln peak area against time, the gradient of the line is determined. Subsequently, half-life and intrinsic clearance are calculated using the following equations.

In a further data set the target is Wee-1 kinase (Homo sapiens (Human), UniProt P30291). In words: Measurement of Wee-1 kinase activity (ADP-Glo). The note with it: read-out: Wee-1 IC50 activity. The data set is classed as biochemical. As to the method: Method 1: Measurement of Wee-1 kinase activity
Chain of Wee-1 kinase (P30291 whole entry): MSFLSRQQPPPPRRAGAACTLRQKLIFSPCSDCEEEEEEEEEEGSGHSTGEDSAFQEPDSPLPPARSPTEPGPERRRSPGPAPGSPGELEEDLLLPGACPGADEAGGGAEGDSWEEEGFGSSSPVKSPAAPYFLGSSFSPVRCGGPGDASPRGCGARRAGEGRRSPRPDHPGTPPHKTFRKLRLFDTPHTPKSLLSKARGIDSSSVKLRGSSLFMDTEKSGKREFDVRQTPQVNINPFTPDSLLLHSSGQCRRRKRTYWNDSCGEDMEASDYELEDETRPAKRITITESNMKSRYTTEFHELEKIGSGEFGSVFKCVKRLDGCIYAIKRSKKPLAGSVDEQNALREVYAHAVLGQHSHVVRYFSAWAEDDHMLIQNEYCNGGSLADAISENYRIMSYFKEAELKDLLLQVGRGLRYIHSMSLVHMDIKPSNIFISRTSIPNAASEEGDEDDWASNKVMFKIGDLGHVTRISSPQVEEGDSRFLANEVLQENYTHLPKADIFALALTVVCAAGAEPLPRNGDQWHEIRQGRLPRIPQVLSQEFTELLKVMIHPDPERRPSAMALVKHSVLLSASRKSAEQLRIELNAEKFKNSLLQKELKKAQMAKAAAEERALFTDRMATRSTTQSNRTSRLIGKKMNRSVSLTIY
In the measurement of Wee-1 activity, a commercial peptide Poly(Lys Tyr(4:1)) hydrobromide was purchased from Sigma Aldrich and used as the substrate. Activated Wee-1 kinase was purchased from Invitrogen (PV3817) and an ADP-Glo luminescent kit was purchased from Promega.
All reactions took place in […] volumes in reaction buffer containing 40 mM Tris-HCl and 20 mM magnesium chloride, supplemented with 0.1 mg/mL bovine serum albumin and 2 mM DTT. Compounds were serially diluted in buffer and 5 μL of each concentration pipetted into a white 384 well plate (Sigma Aldrich M6186). A 5 μL aliquot of the Wee-1 enzyme was added to each well and the plate centrifuged for 1 min to ensure mixing of the enzyme and inhibitor.
The plate was incubated at room temperature for 30 minutes before the addition of 2.0 μg/mL of substrate and 30 μM ATP in a 5 μL aliquot. The plate was centrifuged for one minute and incubated for 1 h at RT.
15 μL of ADP-Glo stop reagent was added to each well to quench the reaction and deplete unconverted ATP. The plate was incubated for a further 40 min in the dark at RT.
30 μL of ADP-Glo kinase detection reagent was added to each well, converting ADP to ATP, catalysing the generation of luciferin by luciferase. The plate was shaken for 1 min, and incubated in the dark for an additional hour.
Luminescence from each well was detected using the Biotek Synergy4 HD plate reader and the percentage inhibition of kinase activity calculated for each inhibitor tested. Positive (kinase only) and negative (no kinase) controls were added to each plate to ensure specific interaction of kinase and inhibitor. The IC50 concentration for each inhibitor was calculated by plotting the percentage kinase inhibition against concentration of inhibitor and the curve generated by non-linear regression fitting.
(In general: In ADP-Glo the light output rises with the ADP produced.)

`NCc1cccc(Nc2ncc3c(=O)n(-c4c(Cl)cccc4Cl)ccc3n2)c1` [Example 25, 2-((3-(Aminomethyl)phenyl)amino)-6-(2,6-dichlorophenyl)pyrido[4,3-d]pyrimidin-5(6H)-one]: the IC50 in data set [1] is at least 1000 nM. In data set [2], the microsomal CLint at 1 μM is over 20 µL/min/mg.
In the case of `O=c1c2cnc(Nc3ccc(N4CCNCC4)cc3)nc2c(Br)cn1-c1c(Cl)cccc1Cl` [Example 9, 8-Bromo-6-(2,6-dichlorophenyl)-2-((4-(piperazin-1-yl)phenyl)amino)pyrido[4,3-d]pyrimidin-5(6H)-one], the IC50 was under 10 nM on Wee-1 kinase and 100 to 1000 nM in data set [1]. For the same compound, the microsomal CLint at 1 μM in data set [2] was at most 20 µL/min/mg.
Take `CN1CCN(c2ccc(Nc3ncc4c(=O)n(-c5c(Cl)cccc5Cl)ccc4n3)cc2)CC1` [Example 15, 6-(2,6-Dichlorophenyl)-2-((4-(4-methylpiperazin-1-yl)phenyl)amino)pyrido[4,3-d]pyrimidin-5(6H)-one]: in data set [1], the IC50 lay in the range of 100 to 1000 nM. Further, the microsomal CLint at 1 μM in data set [2] is over 20 µL/min/mg.
Taken in the same sequence, the figures for `CCN(CC)CCOc1ccc(Nc2ncc3c(=O)n(-c4c(Cl)cccc4Cl)ccc3n2)cc1` [Example 4, 6-(2,6-Dichlorophenyl)-2-((4-(2-(diethylamino)ethoxy)phenyl)amino)pyrido[4,3-d]pyrimidin-5(6H)-one] were 100 to 1000 nM and over 20 µL/min/mg.
On to `CC(=O)Nc1cn(-c2c(Cl)cccc2Cl)c(=O)c2cnc(Nc3ccc(N4CCNCC4)cc3)nc12` [Example 28, N-(6-(2,6-Dichlorophenyl)-5-oxo-2-((4-(piperazin-1-yl)phenyl)amino)-5,6-dihydropyrido[4,3-d]pyrimidin-8-yl)acetamide], for which the IC50 on Wee-1 kinase was over 200 nM.
Turning to `O=c1c2cnc(Nc3ccc(N4CCNCC4)c(Cl)c3)nc2ccn1-c1c(Cl)cccc1Cl` [Example 27, 2-((3-Chloro-4-(piperazin-1-yl)phenyl)amino)-6-(2,6-dichlorophenyl)pyrido[4,3-d]pyrimidin-5(6H)-one], the IC50 at Wee-1 kinase was under 10 nM; in data set [1] it was 100 to 1000 nM. In data set [2], the microsomal CLint at 1 μM was at most 20 µL/min/mg.
As to `O=c1c2cnc(Nc3ccc(N4CCS(=O)(=O)CC4)cc3)nc2ccn1-c1c(Cl)cccc1Cl` [Example 6, 6-(2,6-Dichlorophenyl)-2-((4-(1,1-dioxidothiomorpholino)phenyl)amino)pyrido[4,3-d]pyrimidin-5(6H)-one], the IC50 in data set [1] lay in the range of 100 to 1000 nM. The microsomal CLint at 1 μM in data set [2] is over 20 µL/min/mg.
With `O=c1c2cnc(Nc3ccc(N4CCNCC4)cc3)nc2c(-c2cccnc2)cn1-c1c(Cl)cccc1Cl` [Example 23, 6-(2,6-Dichlorophenyl)-2-((4-(piperazin-1-yl)phenyl)amino)-8-(pyridin-3-yl)pyrido[4,3-d]pyrimidin-5(6H)-one], the IC50 on Wee-1 kinase is under 10 nM; in data set [1], at most 100 nM. In addition, the microsomal CLint at 1 μM in data set [2] is over 20 µL/min/mg.
The matching figures for `NCC#Cc1cn(-c2c(Cl)cccc2Cl)c(=O)c2cnc(Nc3ccc(N4CCOCC4)cc3)nc12` [Example 22, 8-(3-Aminoprop-1-yn-1-yl)-6-(2,6-dichlorophenyl)-2-((4-morpholinophenyl)amino)pyrido[4,3-d]pyrimidin-5(6H)-one]: under 10 nM, at most 100 nM and over 20 µL/min/mg.
`O=c1c2cnc(Nc3ccc(N4CCNCC4)c(F)c3)nc2ccn1-c1c(Cl)cccc1Cl` [Example 29, 6-(2,6-Dichlorophenyl)-2-((3-fluoro-4-(piperazin-1-yl)phenyl)amino)pyrido[4,3-d]pyrimidin-5(6H)-one]: the figures for the IC50 (at Wee-1 kinase; in data set [1]) were under 10 nM and at most 100 nM, respectively. Besides, in data set [2], the microsomal CLint at 1 μM is at most 20 µL/min/mg.
Taken in the same sequence, the figures for `CC(=O)N1CCN(c2ccc(Nc3ncc4c(=O)n(-c5c(Cl)cccc5Cl)ccc4n3)cc2)CC1` [Example 5, 2-((4-(4-Acetylpiperazin-1-yl)phenyl)amino)-6-(2,6-dichlorophenyl)pyrido[4,3-d]pyrimidin-5(6H)-one] were 10 to 200 nM, 100 to 1000 nM and at most 20 µL/min/mg.
For `CN1CCN(C(=O)c2ccc(Nc3ncc4c(=O)n(-c5c(Cl)cccc5Cl)ccc4n3)cc2)CC1` [Example 32, 6-(2,6-Dichlorophenyl)-2-((4-(4-methylpiperazine-1-carbonyl)phenyl)amino)pyrido[4,3-d]pyrimidin-5(6H)-one], the IC50 at Wee-1 kinase lay in the range of 10 to 200 nM; in data set [1], 100 to 1000 nM.
As for `O=c1c2cnc(Nc3cc(F)c(N4CCNCC4)c(F)c3)nc2ccn1-c1c(Cl)cccc1Cl` [Example 30, 6-(2,6-Dichlorophenyl)-2-((3,5-difluoro-4-(piperazin-1-yl)phenyl)amino)pyrido[4,3-d]pyrimidin-5(6H)-one], the IC50 was 10 to 200 nM at Wee-1 kinase and at least 1000 nM in data set [1]. In addition, in data set [2], the microsomal CLint at 1 μM was at most 20 µL/min/mg.
Regarding `O=c1c2cnc(Nc3ccc(N4CCNCC4)cc3)nc2ccn1-c1cccnc1Cl` [Example 3, 6-(2-Chloropyridin-3-yl)-2-((4-(piperazin-1-yl)phenyl)amino)pyrido[4,3-d]pyrimidin-5(6H)-one], the IC50 at Wee-1 kinase was over 200 nM. The microsomal CLint at 1 μM in data set [2] is at most 20 µL/min/mg.
As to `Cc1cc(Nc2ncc3c(=O)n(-c4ccccc4Cl)ccc3n2)ccc1N1CCNCC1` [Example 24, 6-(2-Chlorophenyl)-2-((3-methyl-4-(piperazin-1-yl)phenyl)amino)pyrido[4,3-d]pyrimidin-5(6H)-one], the IC50 at Wee-1 kinase was under 10 nM; in data set [1] it was 100 to 1000 nM. For the same compound, in data set [2], the microsomal CLint at 1 μM is at most 20 µL/min/mg.
For the compound `CN1CCN(c2ccc(Nc3ncc4c(=O)n(-c5c(Cl)cccc5Cl)ccc4n3)cn2)CC1` [Example 31, 6-(2,6-Dichlorophenyl)-2-((6-(4-methylpiperazin-1-yl)pyridin-3-yl)amino)pyrido[4,3-d]pyrimidin-5(6H)-one], in data set [1], the IC50 fell in the range of 100 to 1000 nM. In data set [2], the microsomal CLint at 1 μM was over 20 µL/min/mg.
The matching figures for `CN1CCN(c2cccc(Nc3ncc4c(=O)n(-c5c(Cl)cccc5Cl)ccc4n3)c2)CC1` [Example 26, 6-(2,6-Dichlorophenyl)-2-((3-(4-methylpiperazin-1-yl)phenyl)amino)pyrido[4,3-d]pyrimidin-5(6H)-one]: at least 1000 nM and over 20 µL/min/mg.

Values taken from patent publication US9714244B2, “Substituted pyrido[4,3-d]pyrimidines as Wee-1 inhibitors” (ALMAC DISCOVERY LIMITED, priority 2013, dated 2017).
